Experimental data published in patent publication US20260283972A1, “A COMPOUND FOR PREPARING LIPID NANOPARTICLES ENCAPSULATING AN AGENT, NANOPARTICLE COMPOSITION COMPRISING SAID COMPOUND AND RELATED METHODS THEREOF” (AGENCY FOR SCIENCE, TECHNOLOGY AND RESEARCH, priority 2023, published 2026).
“Also recorded” adds a separate entry of the source.

Key:
Type in all cases: cell-based
[1] = tested on: Escherichia coli (ATCC No. 25922); assay: Antibacterial activity in vitro, broth microdilution MIC and MBC; details: for MIC E. coli: 24 h at 37° C.
Procedure: (§1) The MICs (minimum inhibitory concentrations) of the formulated LNPs containing polymyxin B and free polymyxin B against Gram-negative bacteria were determined using a broth microdilution method. Briefly, the bacteria were incubated overnight in MHB, and the bacteria suspension was diluted with MHB to achieve a concentration of […] (CFU)/mL (O.D. 600=0.100). This was followed by a 1000-fold dilution in MHB. The bacterial suspension was then seeded into a 96-well plate (80 μL per well) and mixed with 20 μL of MHB containing different polymyxin B-loaded LNPs or free polymyxin B concentrations. The 96-well plate was incubated for 24 h at 37° C. (bacteria). […] The MIC experiments were performed with four independent replicates. The MBCs (minimum bactericidal concentrations) were evaluated at the end of the MIC experiment.
(§2) The microbial suspension was then spread on LB agar plates, and the plates were incubated at 37° C. for 24 h to determine CFU on each agar plate. The experiments were performed in replicates of five. The MBC experiment was conducted with three independent replicates.

[2] = tested on: Pseudomonas aeruginosa (ATCC No. 9027); assay: as above; details: for MIC P. aeruginosa: 24 h at 37° C.
Procedure: as §1, §2

[3] = tested on: SH-SY5Y cells; assay: In vitro neurotoxicity, cell viability (AlamarBlue)
Procedure: HEK293 cells were grown in Dulbecco's […] (DMEM) supplemented with 10% FBS and 5% penicillin/streptomycin (Corning). SY-SY5Y cells were grown with a mixture of DMEM/Ham's F-12 with 2 mM L-glutamine (50:50 v/v) supplemented with 10% FBS and 5% penicillin/streptomycin. All cultures were grown in 37° C. incubators supplemented with 5% CO2 and were cultured according to suppliers' instructions. For all screening, cells were plated in 96-well plates at 10,000 cells per well in 100 μL of the appropriate media outlined above for the different cells. The formulated LNPs containing polymyxin B and free polymyxin B were then added to the wells at the desired polymyxin B concentration (e.g., 300, 150, 75, 37.5, 18.8, 9.4 μg mL^−1). The polymyxin B concentration of formulated LNPs was determined using the calibration plot of polymyxin B standards.

[4] = Table 6, experiment with 2nd formulation
[5] = Table 7, experiment with 1st formulation

Substance: Polymyxin B [Polymyxin B (PB)]
- MBC E. coli [1, 4]: 5.0 µg/mL
- MIC E. coli [1, 4]: 1.25 µg/mL
- MBC E. coli [1, 5]: 5.0 µg/mL
- MIC E. coli [1, 5]: 5.0 µg/mL
- MBC P. aeruginosa [2, 4]: 2.50 µg/mL
- MIC P. aeruginosa [2, 4]: 1.25 µg/mL
- MBC P. aeruginosa [2, 5]: 5.0 µg/mL
- MIC P. aeruginosa [2, 5]: 5.0 µg/mL
- viability of SH-SY5Y cells ([3]; 300 μg mL^−1 of polymyxin B, 24 h incubation): ~ 76%
- neurotoxicity / cell toxicity against SH-SY5Y ([3]; high concentration, 300 μg mL^−1, listed as free polymyxin B): relatively pronounced cell toxicity; also recorded: Pronounced neurotoxicity was observed
